Target: T1, human S1P1 receptor (Homo sapiens, UniProt P21453)
T1 construct: expressed in transfected cells; membranes used
Assay: GTP γ35S binding assay for S1P1 activity
Type: biochemical
Details: activity potency from GTP γ35S binding; membranes, test compounds 0.08 to 5,000 nM, 30 min at 25° C.
Procedure: Compounds were synthesized and tested for S1P1 activity using the GTP γ^35S binding assay. These compounds may be assessed for their ability to activate or block activation of the human S1P1 receptor in cells stably expressing the S1P1 receptor.
GTP γ^35S binding was measured in the medium containing (mM) HEPES 25, pH 7.4, MgCl2 10, NaCl 100, dithitothreitol 0.5, digitonin 0.003%, 0.2 nM GTP γ^35S, and 5 μg membrane protein in a volume of 150 μl. Test compounds were included in the concentration range from 0.08 to 5,000 nM unless indicated otherwise. Membranes were incubated with 100 μM 5′-adenylylimmidodiphosphate for 30 min, and subsequently with 10 μM GDP for 10 min on ice. Drug solutions and membrane were mixed, and then reactions were initiated by adding GTP γ^35S and continued for 30 min at 25° C. Reaction mixtures were filtered over Whatman GF/B filters under vacuum, and washed three times with 3 mL of ice-cold buffer (HEPES 25, pH7.4, MgCl2 10 and NaCl 100). Filters were dried and mixed with scintillant, and counted for ^35S activity using a β-counter. Agonist-induced GTP γ^35S binding was obtained by subtracting that in the absence of agonist. Binding data were analyzed using a non-linear regression method. In case of antagonist assay, the reaction mixture contained 10 nM S1P in the presence of test antagonist at concentrations ranging from 0.08 to 5000 nM.

T1 sequence (P21453 whole entry): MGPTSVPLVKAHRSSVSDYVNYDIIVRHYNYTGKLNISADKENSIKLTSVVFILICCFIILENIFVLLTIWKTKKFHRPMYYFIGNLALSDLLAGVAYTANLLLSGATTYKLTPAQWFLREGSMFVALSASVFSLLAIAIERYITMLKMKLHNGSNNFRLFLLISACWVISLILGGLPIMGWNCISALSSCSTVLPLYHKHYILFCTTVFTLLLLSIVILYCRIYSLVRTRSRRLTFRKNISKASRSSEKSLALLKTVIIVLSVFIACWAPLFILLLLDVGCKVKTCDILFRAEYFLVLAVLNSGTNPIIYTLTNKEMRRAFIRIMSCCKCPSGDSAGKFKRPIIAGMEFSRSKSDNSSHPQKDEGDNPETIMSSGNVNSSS

| SMILES | EC50 [nM] |
| --- | --- |
| CNc1ncccc1-c1noc(C(Nc2ccc(C)c(C)c2)c2cccc(Cl)c2)n1 (stereo not shown) [Compound 1, 3-(5-((3-chlorophenyl)((3,4-dimethylphenyl)amino)methyl)-1,2,4-oxadiazol-3-yl)-N-methylpyridin-2-amine] | 336 |
| CNc1ncccc1-c1noc(C(Sc2ccc(C)c(C)c2)c2cccc(Br)c2)n1 (stereo not shown) [Compound 2, 3-(5-((3-bromophenyl)((3,4-dimethylphenyl)thio)methyl)-1,2,4-oxadiazol-3-yl)-N-methylpyridin-2-amine] | 650 |
| CNc1ncccc1-c1noc(C(Sc2ccc(C)c(C)c2)c2cccc(F)c2)n1 (stereo not shown) [Compound 3, 3-(5-(((3,4-dimethylphenyl)thio)(3-fluorophenyl)methyl)-1,2,4-oxadiazol-3-yl)-N-methylpyridin-2-amine] | 368 |
| CNc1ncccc1-c1noc(C(Sc2ccc(C)c(C)c2)c2ccc(Cl)c(Cl)c2)n1 (stereo not shown) [Compound 4, 3-(5-((3,4-dichlorophenyl)((3,4-dimethylphenyl)thio)methyl)-1,2,4-oxadiazol-3-yl)-N-methylpyridin-2-amine] | 638 |
| CNc1ncccc1-c1noc(C(Sc2ccc(C)c(C)c2)c2cccc(Cl)c2)n1 (stereo not shown) [Compound 5, 3-(5-((3-chlorophenyl)((3,4-dimethylphenyl)thio)methyl)-1,2,4-oxadiazol-3-yl)-N-methylpyridin-2-amine] | 214 |
| CNc1ncccc1-c1noc(C(SC2CCCCC2)c2cccc(C(F)(F)F)c2)n1 (stereo not shown) [Compound 6, 3-(5-((cyclohexylthio)(3-(trifluoromethyl)phenyl)methyl)-1,2,4-oxadiazol-3-yl)-N-methylpyridin-2-amine] | 3010 |
| CNc1ncccc1-c1noc(C(Oc2ccc(C)c(C)c2)c2cccc(Cl)c2)n1 (stereo not shown) [Compound 7, 3-(5-((3-chlorophenyl)(3,4-dimethylphenoxy)methyl)-1,2,4-oxadiazol-3-yl)-N-methylpyridin-2-amine] | 1540 |
| CNc1ncccc1-c1noc(C(Sc2ccc(C)c(C)c2)c2ccccc2Cl)n1 (stereo not shown) [Compound 9, 3-(5-((2-chlorophenyl)((3,4-dimethylphenyl)thio)methyl)-1,2,4-oxadiazol-3-yl)-N-methylpyridin-2-amine] | 716 |
| CNc1ncccc1-c1noc(C(Nc2ccc(C)c(C)c2)c2ccccc2)n1 (stereo not shown) [Compound 10, 3-(5-(((3,4-dimethylphenyl)amino)(phenyl)methyl)-1,2,4-oxadiazol-3-yl)-N-methylpyridin-2-amine] | 2390 |
| CNc1ncccc1-c1noc(C(Sc2ccoc2C)c2cccc(Cl)c2)n1 (stereo not shown) [Compound 13, 3-(5-((3-chlorophenyl)((2-methylfuran-3-yl)thio)methyl)-1,2,4-oxadiazol-3-yl)-N-methylpyridin-2-amine] | 1380 |
| CNc1ncccc1-c1noc(C(Oc2ccc(C)c(C)c2)c2ccc(Cl)cc2)n1 (stereo not shown) [Compound 15, 3-(5-((4-chlorophenyl)(3,4-dimethylphenoxy)methyl)-1,2,4-oxadiazol-3-yl)-N-methylpyridin-2-amine] | 509 |

Further lines, results first:

| EC50 [nM] | SMILES |
| --- | --- |
| 2020 | CNc1ncccc1-c1noc(C(Sc2ccc(C)cc2C)c2ccc(Cl)cc2)n1 (stereo not shown) [Compound 16, 3-(5-((4-chlorophenyl)((2,4-dimethylphenyl)thio)methyl)-1,2,4-oxadiazol-3-yl)-N-methylpyridin-2-amine] |
| 550 | CNc1ncccc1-c1noc(C(SC2CCCCC2)c2ccc(Cl)cc2)n1 (stereo not shown) [Compound 17, 3-(5-((4-chlorophenyl)(cyclohexylthio)methyl)-1,2,4-oxadiazol-3-yl)-N-methylpyridin-2-amine] |
| 3190 | CNc1ncccc1-c1noc(C(Sc2ccc(C)cc2)c2ccc(Cl)cc2)n1 (stereo not shown) [Compound 18, 3-(5-((4-chlorophenyl)(p-tolylthio)methyl)-1,2,4-oxadiazol-3-yl)-N-methylpyridin-2-amine] |
| 2560 | CNc1ncccc1-c1noc(C(Sc2ccc(OC)cc2)c2ccc(Cl)cc2)n1 (stereo not shown) [Compound 20, 3-(5-((4-chlorophenyl)((4-methoxyphenyl)thio)methyl)-1,2,4-oxadiazol-3-yl)-N-methylpyridin-2-amine] |
| 2080 | CNc1ncccc1-c1noc(C(Oc2ccc(Cl)c(C)c2)c2ccc(Cl)cc2)n1 (stereo not shown) [Compound 21, 3-(5-((4-chloro-3-methylphenoxy)(4-chlorophenyl)methyl)-1,2,4-oxadiazol-3-yl)-N-methylpyridin-2-amine] |
| 241 | CNc1ncccc1-c1noc(C(Sc2ccc(C)c(C)c2)c2ccc(Cl)cc2)n1 (stereo not shown) [Compound 22, 3-(5-((4-chlorophenyl)((3,4-dimethylphenyl)thio)methyl)-1,2,4-oxadiazol-3-yl)-N-methylpyridin-2-amine] |
| 2050 | CNc1ncccc1-c1noc(C(Oc2ccc(Cl)cc2)c2ccc(Cl)cc2)n1 (stereo not shown) [Compound 23, 3-(5-((4-chlorophenoxy)(4-chlorophenyl)methyl)-1,2,4-oxadiazol-3-yl)-N-methylpyridin-2-amine] |
| 3120 | CNc1ncccc1-c1noc(C(Oc2ccc(C)cc2)c2ccc(Cl)cc2)n1 (stereo not shown) [Compound 26, 3-(5-((4-chlorophenyl)(p-tolyloxy)methyl)-1,2,4-oxadiazol-3-yl)-N-methylpyridin-2-amine] |
| 1320 | CNc1ncccc1-c1noc(C(Sc2ccccc2)c2ccccc2)n1 (stereo not shown) [Compound 27, N-methyl-3-(5-(phenyl(phenylthio)methyl)-1,2,4-oxadiazol-3-yl)pyridin-2-amine] |
| 1920 | CNc1ncccc1-c1noc(C(Oc2ccc(C)cc2)c2ccccc2Cl)n1 (stereo not shown) [Compound 30, 3-(5-((2-chlorophenyl)(p-tolyloxy)methyl)-1,2,4-oxadiazol-3-yl)-N-methylpyridin-2-amine] |
| 1340 | CNc1ncccc1-c1noc(C(Oc2ccc(C)cc2)c2cccc(Cl)c2)n1 (stereo not shown) [Compound 32, 3-(5-((3-chlorophenyl)(p-tolyloxy)methyl)-1,2,4-oxadiazol-3-yl)-N-methylpyridin-2-amine] |
| 2140 | CNc1ncccc1-c1noc(C(Oc2cccc(C)c2)c2ccccc2Cl)n1 (stereo not shown) [Compound 35, 3-(5-((2-chlorophenyl)(m-tolyloxy)methyll)-1,2,4-oxadiazol-3-yl)-N-methylpyridin-2-amine] |
| 2730 | CNc1ncccc1-c1noc(C(Oc2cccc(Cl)c2)c2ccccc2Cl)n1 (stereo not shown) [Compound 36, 3-(5-((3-chlorophenoxy)(2-chlorophenyl)methyl)-1,2,4-oxadiazol-3-yl)-N-methylpyridin-2-amine] |
| 1650 | CNc1ncccc1-c1noc(C(Oc2ccc(C)c(C)c2)c2ccccc2Cl)n1 (stereo not shown) [Compound 38, 3-(5-((2-chlorophenyl)(3,4-dimethylphenoxy)methyl)-1,2,4-oxadiazol-3-yl)-N-methylpyridin-2-amine] |

From patent US8618139B2, “Oxadiazole derivatives as sphingosine 1-phosphate (S1P) receptor modulators” (Allergan, Inc., priority 2010, dated 2013)
